Reference: patent US20230365561A1, “BETA-LACTAMASE INHIBITORS AND THEIR PREPARATION” (NINGXIA ACADEMY OF AGRICUL TURE AND FORESTRY SCIENCES, priority 2020, published 2023)
Counter-ions that a name gives are not always drawn. Like-named read-outs stand apart in the source and are kept apart here.

How the values were obtained:
Format in all cases: cell-based
[1] = tested on: A. baumannii clinical isolate (strain 7); assay: MIC by broth microdilution (alone and in combination with meropenam), strain 7; settings: Acinetobacter baumannii, compound alone
Method: (§1) Compounds of the present invention alone, meropenam (MER) alone, and as a combination with test antibiotic (meropenam) were tested for antimicrobial activity by determing minimum inhibitory concentration (MIC, mg/L) using the broth microdilution method according to the guidelines of the Clinical Laboratories and Stansards Insitute (“Methods for Dilution Antimicrobial Suscetibility Tests for Bacterial that Grow Aerobiclly”, Approved standard, […]., Clinical and Laboratories Stanards Institute (CLSI) Document M7-A8, Wayne, Pa., USA, 2009). Meropenam as a test antibiotic compound was dissolved in DMSO. Meropenam was then diluted in microbial growth medium (Mueller-Hinton Broth II, cation adjusted) resulting in a final concention range of 0.125-64 mg/L in serial two-fold dilution. In all cases the filnal DMSO concentraion was less than 0.5%. Bacteria were added to 96-well microtitre plates containing the serial two-fold dilutions of the compoumds; the final cell density was appoximately 5x10^5 colony forming units/mL (CFU/mL). Plates were incubated at 37° C. for 18-24 hours and read visually. The MIC, i.e. the lowest concentration of the test compound that inhibited visible growth of the bacteria, was recorded. The same assay conditions were used when the compounds of present invention alone, and as a combination with test meropenam antibiotic compound was tested for minmum inhibitory concentration (MIC, mg/L). Whileest meropenam was serially diluted as descrribed above, a constant concentration of the present invention of 4 µg/mL was used.
(§2) Bacterial strains that were used to evaluate the antimicrobial activity using the MIC determination included but were not limited to E. coli clinical isolate (strain 1), E. coli 8739 (strain 2), K. pneumoniae clinical isolate (strain 3), K. pneumoniae 700603 (strain 4), E. cloacae clinical isolate (strain 5), E. cloacae 700323 (strain 6), A. baumannii clinical isolate (strain 7), A. baumannii 19606 (strain 8), P. aeruginosa clinical isolate (strain 9), P. aeruginosa 9027 (strain 10).

[2] = tested on: K. pneumoniae clinical isolate (strain 3); assay: MIC by broth microdilution (alone and in combination with meropenam), strain 3; settings: Klebsiella pneumoniae, compound alone
Method: as §1, §2

[3] = tested on: A. baumannii 19606 (strain 8); assay: MIC by broth microdilution (alone and in combination with meropenam), strain 8; settings: Acinetobacter baumannii, compound alone
Method: as §1, §2

[4] = tested on: E. cloacae clinical isolate (strain 5); assay: MIC by broth microdilution (alone and in combination with meropenam), strain 5; settings: Enterobacter cloacae, compound alone
Method: as §1, §2

[5] = tested on: E. coli clinical isolate (strain 1); assay: MIC by broth microdilution (alone and in combination with meropenam), strain 1; settings: Escherichia coli, compound alone
Method: as §1, §2

[6] = tested on: P. aeruginosa clinical isolate (strain 9); assay: MIC by broth microdilution (alone and in combination with meropenam), strain 9; settings: Pseudomonas aeruginosa, compound alone
Method: as §1, §2

[7] = tested on: E. cloacae 700323 (strain 6); assay: MIC by broth microdilution (alone and in combination with meropenam), strain 6; settings: Enterobacter cloacae, compound alone
Method: as §1, §2

[8] = tested on: P. aeruginosa 9027 (strain 10); assay: MIC by broth microdilution (alone and in combination with meropenam), strain 10; settings: Pseudomonas aeruginosa, compound alone
Method: as §1, §2

[9] = tested on: K. pneumoniae 700603 (strain 4); assay: MIC by broth microdilution (alone and in combination with meropenam), strain 4; settings: Klebsiella pneumoniae, compound alone
Method: as §1, §2

E. coli 8739 (strain 2) = assay: MIC by broth microdilution (alone and in combination with meropenam), strain 2; settings: Escherichia coli, compound alone
Method: as §1, §2

[10] = read-out: MIC, antibacterial activity of example alone

SMILES | MIC ([1]; read-out: MIC) | MIC ([2]; read-out: MIC) | MIC ([3]; read-out: MIC) | MIC ([4]; read-out: MIC) | MIC ([5]; read-out: MIC) | MIC ([6]; read-out: MIC) | MIC ([7]; read-out: MIC) | MIC ([8]; read-out: MIC) | MIC ([9]; read-out: MIC) | MIC (E. coli 8739 (strain 2); read-out: MIC) | MIC [1, 10] | MIC [2, 10] | MIC [3, 10] | MIC [4, 10] | MIC [5, 10] | MIC [6, 10] | MIC [7, 10] | MIC [8, 10] | MIC [9, 10] | MIC (E. coli 8739 (strain 2); [10])
N=C(NC(=O)c1cncnc1)[C@@H]1CC[C@@H]2CN1C(=O)N2OS(=O)(=O)O [Ex.10, Sodium (2S,5R)-7-oxo-2-(N-(pyrimidine-5-carbonyl)carbamimidoyl)-1,6-diazabicyclo[3.2.1]octan-6-yl Sulfate] |  |  |  |  |  |  |  |  |  |  | > 64 µg/mL | > 64 µg/mL | > 64 µg/mL | > 64 µg/mL | > 64 µg/mL | > 64 µg/mL | > 64 µg/mL | > 64 µg/mL | > 64 µg/mL | > 64 µg/mL
N=C(NC(=O)c1cccnn1)[C@@H]1CC[C@@H]2CN1C(=O)N2OS(=O)(=O)O [Ex.12, (2S,5R)-7-oxo-2-(N-(pyridazine-3-carbonyl)carbamimidoyl)-1,6-diazabicyclo[3.2.1]octan-6-yl Hydrogen Sulfate] |  |  |  |  |  |  |  |  |  |  | > 64 µg/mL | > 64 µg/mL | > 64 µg/mL | > 64 µg/mL | > 64 µg/mL | > 64 µg/mL | > 64 µg/mL | > 64 µg/mL | > 64 µg/mL | > 64 µg/mL
CC(=O)N1CCC[C@@H](C(=O)NC(=N)[C@@H]2CC[C@@H]3CN2C(=O)N3OS(=O)(=O)[O-])C1.[Na+] [Ex.27, Sodium (2S,5R)-2-(N-((R)-1-acetylpiperidine-3-carbonyl)carbamimidoyl)-7-oxo-1,6-diazabicyclo[3.2.1]octan-6-yl Sulfate] |  |  |  |  |  |  |  |  |  |  | > 64 µg/mL | > 64 µg/mL | > 64 µg/mL | > 64 µg/mL | > 64 µg/mL | > 64 µg/mL | > 64 µg/mL | > 64 µg/mL | > 64 µg/mL | > 64 µg/mL

Continued, values first:

MIC ([1]; read-out: MIC) | MIC ([2]; read-out: MIC) | MIC ([3]; read-out: MIC) | MIC ([4]; read-out: MIC) | MIC ([5]; read-out: MIC) | MIC ([6]; read-out: MIC) | MIC ([7]; read-out: MIC) | MIC ([8]; read-out: MIC) | MIC ([9]; read-out: MIC) | MIC (E. coli 8739 (strain 2); read-out: MIC) | MIC [1, 10] | MIC [2, 10] | MIC [3, 10] | MIC [4, 10] | MIC [5, 10] | MIC [6, 10] | MIC [7, 10] | MIC [8, 10] | MIC [9, 10] | MIC (E. coli 8739 (strain 2); [10]) | SMILES
> 64 µg/mL | > 64 µg/mL | > 64 µg/mL | > 64 µg/mL | > 64 µg/mL | > 64 µg/mL | > 64 µg/mL | > 64 µg/mL | > 64 µg/mL | > 64 µg/mL |  |  |  |  |  |  |  |  |  |  | N=C(NC(=O)c1ccncn1)[C@@H]1CC[C@@H]2CN1C(=O)N2OS(=O)(=O)[O-].[Na+] [Ex.48, Sodium (2S,5R)-7-oxo-2-(N-(pyrimidine-4-carbonyl)carbamimidoyl)-1,6-diazabicyclo[3.2.1]octan-6-yl Sulfate]
> 64 µg/mL | > 64 µg/mL | > 64 µg/mL | > 64 µg/mL | > 64 µg/mL | > 64 µg/mL | > 64 µg/mL | > 64 µg/mL | > 64 µg/mL | > 64 µg/mL |  |  |  |  |  |  |  |  |  |  | N=C(NC(=O)C1CCCN=N1)[C@@H]1CC[C@@H]2CN1C(=O)N2OS(=O)(=O)[O-].[Na+] (stereo partly drawn) [Ex.52, Sodium (2S,5R)-7-oxo-2-(N-(3,4,5,6-tetrahydropyridazine-3-carbonyl)carbamimidoyl)-1,6-diazabicyclo[3.2.1]octan-6-yl Sulfate]
 |  |  |  |  |  |  |  |  |  | > 64 µg/mL | > 64 µg/mL | > 64 µg/mL | > 64 µg/mL | > 64 µg/mL | > 64 µg/mL | > 64 µg/mL | > 64 µg/mL | > 64 µg/mL | > 64 µg/mL | CN1CC[C@@H](C(=O)NC(=N)[C@@H]2CC[C@@H]3CN2C(=O)N3OS(=O)(=O)O)C1 [Ex.33, Sodium (2S,5R)-2-(N-((R)-1-methylpyrrolidine-3-carbonyl)carbamimidoyl)-7-oxo-1,6-diazabicyclo[3.2.1]octan-6-yl Sulfate]
> 64 µg/mL | > 64 µg/mL | > 64 µg/mL | > 64 µg/mL | > 64 µg/mL | > 64 µg/mL | > 64 µg/mL | > 64 µg/mL | > 64 µg/mL | > 64 µg/mL |  |  |  |  |  |  |  |  |  |  | N=C(NC(=O)c1ccc(C(F)(F)F)cn1)[C@@H]1CC[C@@H]2CN1C(=O)N2OS(=O)(=O)[O-].[Na+] [Ex.50, Sodium (2S,5R)-7-oxo-2-(N-(5-(trifluoromethyl)picolinoyl)carbamimidoyl)-1,6-diazabicyclo[3.2.1]octan-6-yl Sulfate]
